In patent US20080255062A1, “AXON REGENERATION FROM ADULT SENSORY NEURONS” (UNIVERSITY OF MANITOBA, priority 2007, published 2008):
Where a name gives a salt, the structure may show the parent alone.

Experiments:
adult sensory neurons = experiment: Small molecule screen for axon regeneration and outgrowth in adult neural cell suspensions (Example 3); format: cell-based, Sprague-Dawley rat; details: 10 μM drug, 24 hrs incubation; average of 4 fields from 3 wells (12 fields) ± SE; 30×30 μm grid
Description: A single adult male Sprague-Dawley rat weighing between 250 g-450 g was anesthetized by isofluorane induction. After no response to external stimuli, the rat was sacrificed by guillotine.
Unnecessary satellite tissues and nerve fibers were cleaned from the DRG tissue immersed in the cell suspension medium at ambient room temperature using # 5 student forceps and a #10 scalpel blade under a Fisher Scientific Stereomaster® dissecting microscope (Stereomaster is a registered trademark of Fischer Scientific Co., LLC., Hampton, N.H., USA). The cleaned DRG tissue was placed into fresh cell suspension medium.
The cleaned DRG tissue was digested enzymatically to remove collagen fibers and proteinaceous material thereby releasing single DRG cells, as follows. […] The DRG tissue was then transferred to a fresh collagenase enzyme-cell suspension medium and incubated for another hour, after which the collagenase-digested DRG tissue was aspirated and washed twice in cell suspension medium pre-warmed to ambient room temperature.
The washed collagenase-digested DRG tissue was then placed into cell suspension medium to which a trypsin enzyme preparation (Prod. # T5266 from porcine pancreas; supplied by Sigma-Aldrich) was added to a final concentration of 0.25%, and then incubated for twenty minutes at 37° C. in a sterile atmosphere comprising 5% CO2. The trypsin action was stopped by the addition of 1 mL of pre-warmed HyClone fetal bovine serum […] (FBS Prod. # SH30070.01 supplied by Thermo Fisher Scientific, Napean, ON, Canada). The enzyme-digested DRG tissue was then washed twice with cell suspension medium supplemented with 10% FBS to ensure deactivation of trypsin activity. The enzyme-digested DRG tissue was then washed twice with cell suspension medium to remove the FBS.
The enzyme-digested DRG tissue was taken up from the cell suspension medium into a borosilicate glass Pasteur pipette (note that a borosilicate glass pipette was used to minimize DRG tissue sticking to the pipette) and was triturated about 15 times to disrupt the DRG tissue and to disassociate individual cells, after which the large tissue fragments were allowed to settle out of the suspension.
The supernatent containing satellite cells and debris was aspirated and discarded. […] The Ham's F12 medium containing 15% BSA served as a purification column for the supernatent and produced several upper layers containing dead cells, cellular debris and satellite layers over pellet of live neural cells. The upper layers were removed by aspiration with a Pasteur pipette. The cell pellet was resuspended in 1 mL of plating medium which comprised the cell suspension medium amended with 15 mM D-glucose (for a final concentation of 25 mM glucose). The 1 mL of suspended neural cells was then added to 19 mL of plating medium to make a 20-mL suspension of live neural cells.
600 μL of the neural cell suspension was removed to a 1.5 mL Eppendorf centrifuge tube.
The 600-μL reserved neural cell suspension was separated into three 200-μL aliquots which were then each plated into a well. The growth-factor-amended neural cell suspension was then plated into the remaining 93 wells in 200-μL aliquots. DMSO (Cat. # D2650 supplied by Sigma-Aldrich) was added to the three control wells (i.e., containing neural cell suspension that was not amended with growth factor supplements). The 96-well plate was then stored in a direct-heat humidified incubator (Form a CO2 Incubator supplied by Thermo Fisher Scientific) at 37° C. in a sterile atmosphere comprising 5% CO2.
(§1) High resolution and high pixel density digitized images of neurons were acquired. […] Total axon outgrowth was determined by placing a 30×30 μm grid over the image and counting the total number of intercepts with the grid line. Total neurite lengths were determined by the summing the lengths of all the neurites produced by an individual neuron.

[1] = test system: adult neural cells isolated from three-month-old STZ rats; experiment: Axon outgrowth from adult neural cells of streptozotocin diabetic rats (Example 4); format: cell-based, Sprague-Dawley rat (STZ diabetic); details: 24-h incubation, 25 mM glucose
Method: as §1

[2] = test system: adult neurals cells isolated from four-month old ZDF rats; experiment: Axon outgrowth from adult neural cells of Zucker diabetic fatty rats (Example 5); format: cell-based, Zucker diabetic fatty rat; details: 24-h incubation, 25 mM glucose
Method: as §1

[3] = at the dosages tested (0.1, 1.0, 10.0 μM)

**Q.** `COc1c2occc2cc2ccc(=O)oc12` [Methoxsalen] was tested. Which “Ave number of intersects per cell per well” value (from here on “Ave number … per well”) (adult sensory neurons) did it give?
**A.** 9.7 ± 2.0

**Q.** With `CC(C)NCC(O)COc1ccc(CC(N)=O)cc1` (stereo not shown) [Atenolol] as the molecule, how does the “Ave number … per well” value (adult sensory neurons) read?
**A.** 6.2 ± 0.2

**Q.** `CN[C@@H]1[C@H](O[C@H]2[C@H](O[C@H]3[C@H](O)[C@@H](O)[C@H](NC(=N)N)[C@@H](O)[C@@H]3NC(=N)N)O[C@@H](C)[C@]2(O)CO)O[C@@H](CO)[C@H](O)[C@H]1O` [Dihydrostreptomycin HCl] was tested. Which “Ave number … per well” value (adult sensory neurons) did it give?
**A.** 2.4 ± 0.6

**Q.** For Hydrocortizone, which “Ave number … per well” value (adult sensory neurons) is on record?
**A.** 10.7 ± 1.7

**Q.** Which “Ave number … per well” value (adult sensory neurons) does the source give for `CC(C(=O)O)c1cccc(C(=O)c2ccccc2)c1` (stereo not shown) [Ketoprofen] here?
**A.** 7.9 ± 0.7

**Q.** For `Nc1ccc(/N=N/c2ccccc2)c(N)n1` [Phenazopyridine HCl], which “Ave number … per well” value (adult sensory neurons) is on record?
**A.** 10.2 ± 0.2

**Q.** For `CN1CCN(CC(=O)N2c3ccccc3C(=O)Nc3cccnc32)CC1` [Pirenzepine HCl], which “Ave number … per well” value (adult sensory neurons) is on record?
**A.** 4.4 ± 0.7

**Q.** And the “axon outgrowth relative to the controls” value [1, 3]?
**A.** did not have significant effects

**Q.** And the “axon outgrowth relative to the controls” value [2, 3]?
**A.** did not have significant effects

**Q.** `CC(=O)O[C@]1(C(C)=O)CC[C@H]2[C@@H]3C=C(C)C4=CC(=O)CC[C@]4(C)[C@H]3CC[C@@]21C` [Megastrol acetate] was tested. Which “Ave number … per well” value (adult sensory neurons) did it give?
**A.** 9.2 ± 1.8

**Q.** Which “Ave number … per well” value (adult sensory neurons) does the source give for `CC(C)(Oc1ccc(CCNC(=O)c2ccc(Cl)cc2)cc1)C(=O)O` [Bezafibrate] here?
**A.** 6.9 ± 1.7

**Q.** Which results are given for `CCN(CC)C(C)CN1c2ccccc2Sc2ccccc21` (stereo not shown) [Ethopropazine HCL]?
**A.** Ave number of intersects per cell per well (adult sensory neurons): 4.4 ± 1.4; axon outgrowth relative to the controls ([2]; 10.0 μM): significantly increased

**Q.** With `O=S(=O)(O)CCS` [Mesna] as the molecule, how does the “Ave number … per well” value (adult sensory neurons) read?
**A.** 8.8 ± 3.9

**Q.** With `Cn1c(=O)c2c(ncn2C)n(C)c1=O` [Caffeine] as the molecule, how does the “Ave number … per well” value (adult sensory neurons) read?
**A.** 3.25 ± 1.6

**Q.** With `CCCCOc1cc(C(=O)NCCN(CC)CC)c2ccccc2n1` [Dibucaine hydrochloride] as the molecule, how does the “Ave number … per well” value (adult sensory neurons) read?
**A.** 2.0 ± 0.3

**Q.** With `NCC(CC(=O)O)c1ccc(Cl)cc1` (stereo not shown) [Baclofen] as the molecule, how does the “Ave number … per well” value (adult sensory neurons) read?
**A.** 9.8 ± 2.2

**Q.** With `CCC1(c2ccc(N)cc2)CCC(=O)NC1=O` (stereo not shown) [Aminoglutethimide] as the molecule, how does the “Ave number … per well” value (adult sensory neurons) read?
**A.** 5.9 ± 2.0

**Q.** `C=N[C@@H](C(=O)N[C@@H]1C(=O)N2[C@@H]1SC(C)(C)[C@@H]2C(=O)O)c1ccccc1` [Metampicillin sodium] was tested. Which “Ave number … per well” value (adult sensory neurons) did it give?
**A.** 6.7 ± 1.3

**Q.** Which “axon outgrowth relative to the controls” value [1, 3] does the source give for Aminopentanoic acid here?
**A.** did not have significant effects

**Q.** `CCCC(CCC)C(=O)[O-].[Na+]` [Sodium valproate] was tested. Which “Ave number … per well” value (adult sensory neurons) did it give?
**A.** 8.5 ± 1.8

**Q.** Which results are given for `COc1ccccc1OCC(O)CO` (stereo not shown) [Guaifenesin]?
**A.** Ave number of intersects per cell per well (adult sensory neurons): 5.0 ± 0.9; axon outgrowth relative to the controls ([1]; 10.0 μM): significantly increased; axon outgrowth relative to the controls ([2]; 0.1 μM): significantly increased

**Q.** With Aminopentanoic acid HCl as the molecule, how does the “Ave number … per well” value (adult sensory neurons) read?
**A.** 4.3 ± 0.4
